# Experimental data as given in PubChem BioAssay (NCI).
# “And” between values parts separate entries of the source, which are not always exact repeats. Equal entries are not always repeated.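 These data come from cells grown in 96-well plates and exposed to compound for 48 hours at five concentrations. At the GI50, growth is halved. Definition used: TGI = concentration required for complete inhibition of growth.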
# Columns and labels:
# Experiment in all cases: NCI tumour cell line growth inhibition, 48 h
# [1] = tested on: U251 CNS
# [2] = tested on: UACC-62 melanoma
# [3] = tested on: OVCAR-3 ovarian
# [4] = tested on: TK-10 renal
# [5] = tested on: EKVX NSCLC
# [6] = tested on: LOX IMVI melanoma
# [7] = tested on: OVCAR-8 ovarian
# [8] = tested on: SK-MEL-28 melanoma
# [9] = tested on: MOLT-4 leukemia
# [10] = tested on: DU-145 prostate
Compound,GI50 [1] [µM],TGI [1] [µM],GI50 [2] [µM],TGI [2] [µM],GI50 [3] [µM],TGI [3] [µM],GI50 [4] [µM],TGI [4] [µM],GI50 [5] [µM],TGI [5] [µM],GI50 [6] [µM],TGI [6] [µM],GI50 [7] [µM],TGI [7] [µM],GI50 [8] [µM],TGI [8] [µM],GI50 [9] [µM],TGI [9] [µM],GI50 [10],TGI [10]
CC(=O)Nc1ccc(/C=C/C(=O)c2sc(-n3nc(-c4ccccc4)cc3-c3ccccc3)nc2C)cc1,> 100,> 100,> 100,> 100,> 100,> 100,> 100,> 100,> 100,> 100,> 100,> 100,> 100,> 100,> 100,> 100,> 100,> 100,–,–
O=C1N(c2ccccc2)C2(O)C(=O)c3ccccc3C2(O)N1c1ccccc1 (stereo unspecified),–,> 100,–,> 100,–,> 100,–,> 100,–,> 100,–,> 100,–,> 100,–,> 100,–,> 100,–,–
COc1cc(Br)c(C2OCCCO2)cc1OCc1ccccc1,–,> 100,–,> 100,–,> 100,–,> 100,–,> 100,–,> 100,–,> 100,–,> 100,–,> 100,–,–
O=c1ccn([C@@H]2C[C@H](CO)CS(=O)C2)c(=O)[nH]1 (stereo partly specified),–,> 100,–,> 100,–,> 100,–,> 100,–,> 100,–,> 100,–,> 100,–,> 100,–,> 100,–,–
CC(=O)NNc1nc(C)c(C(=O)NNC(=O)C(=O)Nc2ccc(C)cc2[N+](=O)[O-])s1,–,> 100,–,> 100,–,> 100,–,> 100,–,> 100,–,> 100,–,> 100,–,> 100,–,> 100,–,–
COc1cc(F)c(F)c(F)c1C(=O)c1cnc(NC2CCN(S(C)(=O)=O)CC2)nc1N,0.78,> 25,1.49,7.98,2.33,> 19,1.6,24.7,–,–,1.04,> 13,2.28,> 25,2.24,18.4,0.845,11.4,2.58 µM,> 22 µM
COC(=O)N1C=Cc2c(c(C)c3c([nH]c4ccccc43)c2C)C1C (stereo unspecified),–,30.4,–,34.9,–,30.9,–,35.9,–,32.1,–,33.7,–,39.8,–,31.1,–,43.3,–,–
N#CC(NNC(=O)c1ccccc1O)c1ccccc1O (stereo unspecified),–,> 100,–,16.9,–,> 100,–,> 100,–,–,–,97.3,–,> 100,–,> 100,–,> 100,–,–
O=C(c1ccccc1)N1CCc2c([nH]c3ccccc23)C1,–,> 100,–,> 100,–,> 100,–,> 100,–,> 100,–,> 100,–,> 100,–,> 100,–,64.4,–,–
BrC(/C=N/Nc1nnc(-c2ccccc2)c(-c2ccccc2)n1)C(Br)c1ccccc1 (stereo unspecified),–,> 100,–,53.5,–,> 100,–,> 100,–,> 100,–,> 100,–,> 100,–,> 100,–,> 100,–,–
CSc1cnc2ccccc2c1Sc1cn(C)c2ccccc2c1=O,–,38.6,–,> 100,–,95.5,–,> 100,–,> 100,–,> 100,–,45,–,> 100,–,> 100,–,–
CC(=O)Nc1ccc(S(=O)(=O)N2C(=O)CCC2C(=O)Nc2ccccc2)cc1 (stereo unspecified),1.59,13.3,0.0523,10.3,1.75,11.8,1.91,13.5,–,–,0.0482,13.2,2.23,19,1.79,18.1,1.96,14.5,3.46 µM,19.2 µM
COc1cc(/C=C(\C#N)C(=O)c2ccccc2)cc(OC)c1OC,–,> 100,–,> 100,–,> 100,–,> 100,–,> 100,–,> 100,–,> 100,–,> 100,–,> 100,–,–
CCOc1ccc(/C=C/C(=O)c2sc(NNC(C)=O)nc2C)cc1,–,> 100,–,> 100,–,> 100,–,> 100,–,> 100,–,> 100,–,> 100,–,> 100,–,> 100,–,–
Cc1[nH]n(C(=O)Cc2ccccc2)c(=O)c1/C=C1\C(=O)C=Cc2ccccc21,–,–,–,–,–,> 100,–,> 100,–,> 100,–,93,–,> 100,–,> 100,–,> 100,–,–
CCc1cccc(CC)c1NC1=CC(=O)C(=O)c2ccccc21,–,36.6,–,30.1,–,8.39,–,56.3,–,27.9,–,29.3,–,36.7,–,37.4,–,> 100,–,–
CC(=O)[O-].O=C([CH-]C(=O)c1ccccc1)c1ccccc1.O=C([CH-]C(=O)c1ccccc1)c1ccccc1.[Dy+3],11.9,> 100,9.15,48.1,13.9,51.8,27.4,86.5,9.62,42.6,12.4,30.9,4.78,36.5,15.4,51.4,4.59,31.9,–,–
Cc1ccccc1C1N=C2Oc3ccccc3C=C2C(=O)N1 (stereo unspecified),11.7,> 100,1.48,> 100,0.621,2.69,8.06,> 100,–,–,30.5,> 100,10.9,> 100,4.57,> 100,19,> 100,2.09 µM,> 100 µM
FC(F)(F)c1ccc(-c2cnc(-c3nn[nH]n3)nc2NC2CCCCCC2)cc1,> 10,> 10,> 10,> 10,> 10,> 10,> 10,> 10,–,–,> 10,> 10,> 10,> 10,> 10,> 10,> 10,> 10,> 10 µM,> 10 µM
N/C(=N\O)c1cn(C2OC(CO)C(O)C2O)c2ncnc(N)c12 (stereo unspecified),0.185,> 71.7,0.141,0.366,0.408,9.76,0.204,7.49,–,–,0.153,0.501,0.186,2.59,0.127,0.382,0.277,1.64,0.19 µM,–

Compound,GI50 [1] [µM],TGI [1] [µM],GI50 [2] [µM],TGI [2] [µM],GI50 [3] [µM],TGI [3] [µM],GI50 [4] [µM],TGI [4] [µM],GI50 [5] [µM],TGI [5] [µM],GI50 [6] [µM],TGI [6] [µM],GI50 [7] [µM],TGI [7] [µM],GI50 [8] [µM],TGI [8] [µM],GI50 [9] [µM],TGI [9] [µM],GI50 [10],TGI [10]
CC1(C)OC2OC(/C=C/[N+](=O)[O-])C3OC(C)(C)OC3C2O1 (stereo unspecified),–,32.7,–,28.6,–,34.7,–,9.56,–,41.9,–,22.1,–,40.9,–,32.9,–,13.2,–,–
O=C(NC(=Nc1ccccc1)SCCSC(=Nc1ccccc1)NC(=O)c1ccccc1)c1ccccc1,–,> 100,–,> 100,–,> 100,–,> 100,–,> 100,–,> 100,–,> 100,–,> 100,–,> 100,–,–
COc1cc(CC2c3cc(OC)c(OC)cc3CCN2C)c(C(=O)O)cc1OC (stereo unspecified),–,> 100,–,> 100,–,> 100,–,> 100,–,> 100,–,> 100,–,> 100,–,> 100,–,> 100,–,–
CCC[CH2][Sn]1([CH2]CCC)[O]C(=O)c2cccnc2[S]1,1.21,5.33,1.87,5.53,3.49,12.5,3.71,12.1,2.46,11.9,1.76,3.6,4.04,14.5,2.7,10.6,1.87,7.71,–,–
CC[C@H]1CNC(=O)CC1CC(=O)OC (stereo partly specified),–,> 100,–,> 100,–,–,–,> 100,–,> 100,–,> 100,–,> 100,–,> 100,–,> 100,–,–
N#CC1(C2CC(=O)N(c3ccccc3)C2=O)CCCCC1=O (stereo unspecified),–,> 100,–,> 100,–,> 100,–,> 100,–,> 100,–,> 100,–,> 100,–,> 100,–,> 100,–,–
C/C(=N\NC(N)=S)c1ccc(Oc2ccccc2)cc1,–,31.3,–,28.8,–,22.9,–,21.8,–,50.4,–,34.5,–,52.3,–,33.2,–,17.4,–,–
CCc1ccc2cc3c(ccc4ccccc43)c3c2c1CC3,–,–,> 100,> 100,> 100,> 100,> 100,> 100,–,–,> 100,> 100,> 100,> 100,> 100,> 100,> 100,> 100,> 100 µM,> 100 µM
C=CC(C)(C)[C@@]12CC3C(=O)N[C@@H](Cc4ccccc4)C(=O)N3[C@@H]1N(C(C)=O)c1ccccc12 (stereo partly specified),–,> 100,–,> 100,–,> 100,–,> 100,–,> 100,–,> 100,–,> 100,–,> 100,–,71.7,–,–
O=C(CC1(O)C(=O)Nc2ccc(Br)cc21)c1cccc([N+](=O)[O-])c1 (stereo unspecified),–,> 100,–,–,–,> 100,–,> 100,–,> 100,–,> 100,–,> 100,–,> 100,–,70.1,–,–
CCCCP1(=O)C=CC(Cl)=C(C)C1 (stereo unspecified),–,> 100,–,> 100,–,> 100,–,> 100,–,> 100,–,–,–,> 100,–,> 100,–,> 100,–,–
N#Cc1cccc(C2SCc3nc4ccccc4n32)c1 (stereo unspecified),–,> 100,–,> 100,–,–,–,> 100,–,> 100,–,> 100,–,> 100,–,> 100,–,> 100,–,–
CCn1c(O)c(C(=O)Nc2cccs2)c(=O)n(CC)c1=S,–,25.9,–,29.5,–,32.2,–,69.3,–,–,–,33.3,–,60.2,–,32.2,–,59.8,–,–
N=C(N)c1ccc(-c2ccc(-c3cccs3)s2)cc1F,1.33,2.8,1.62,3.34,1.47,3.09,1.61,3.03,–,–,1.21,2.67,2.04,5.19,1.45,3.09,1.03,2.87,1.57 µM and 1.44 µM,3.04 µM and 2.84 µM
O=C(Nc1cc(Cl)ccc1Cl)c1cc2ccccc2oc1=O,–,> 100,–,> 100,–,> 100,–,> 100,–,> 100,–,> 100,–,> 100,–,> 100,–,> 100,–,–
O=C1C(=C2C(=O)c3ccccc3[N+]2=O)N([O-])c2ccccc21,–,53.9,–,–,–,39.7,–,81.1,–,42.2,–,29.8,–,50.4,–,> 100,–,48.7,–,–
CC1CC(=O)C(CC(=O)O)[C@H]1C(C(=O)C(=O)Nc1cc(Cl)ccc1Cl)[N+](=O)[O-] (stereo partly specified),–,> 100,–,> 100,–,> 100,–,> 100,–,> 100,–,> 100,–,> 100,–,> 100,–,–,–,–
COc1ccc(Cc2c3cc(OC)c(OC)cc3cc[n+]2C)cc1,–,> 73.1,–,> 50,–,36.2,–,> 65.1,–,> 59,–,> 24.7,–,> 48.6,–,> 58.6,–,> 100,–,–
CCCCc1c2c([n+]([O-])c3c1CCCC3)CCCC2,–,> 100,–,–,–,> 100,–,> 100,–,> 100,–,> 100,–,> 100,–,> 100,–,> 100,–,–
Cc1cc(Br)ccc1N=NC1C(=O)ON=C1c1ccccc1 (stereo unspecified),–,> 100,–,> 100,–,> 100,–,> 100,–,> 100,–,> 100,–,> 100,–,> 100,–,> 100,–,–
